Measured values taken from patent US20030100515A1, “Benzophenone glycopyranosides, preparation and therapeutic use” (priority 1999, published 2003).
Marks after values point to notes of the source that are not given here.

system: female mice of the C57BL/6J strain; assay: Lowering of serum cholesterol level in mice subjected to a fatty diet (single oral dose); format: in vivo; conditions: total serum cholesterol; female C57BL/6J mice on fatty diet (1.25% cholesterol, 0.5% cholic acid); single dose 10 mg/kg by tubage
Experimental: The antiatheromatous activity of the compounds according to the invention was evaluated as a function of their ability to lower the serum cholesterol level in mice subjected to a fatty diet. […] This correlation affords a test which is more rapid than direct experiments on the atheromatous plaque, which require a lengthy treatment of the animals and an expensive histological study of the walls of the aortic arch.
The test used consists in administering a single dose of the compound to female mice of the C57BL/6J strain. The protocol is as follows: On the first day (D0), the mice are fasted from 9 am to 5 pm, a blood sample being taken at 2 pm. At 5 pm, a given amount of food (a fatty diet comprising 1.25% of cholesterol and 0.5% of cholic acid) is distributed. On the second day (D1), the food leftovers are weighed at 9 am and the mice are fasted from 9 am to 2 pm. A blood sample is taken at 2 pm. For the treated groups of mice, the compound is administered at 9 am on the second day (D1) by tubage in the form of a suspension in a 3% aqueous solution of gum. The control groups receive only the aqueous gum.
[…] The total serum cholesterol is assayed and the results are expressed as the percentage inhibition of the increase in cholesterolemia compared with the control group.

SMILES	Activity (%): percentage inhibition of the increase in cholesterolemia compared with the control group
CC(=O)O[C@@H]1[C@@H](OC(C)=O)[C@H](Oc2ccc(C(=O)c3ccc(C#N)cc3)cc2)OC[C@@H]1OC(C)=O [Example 18, [4-(4-Cyanobenzoyl)phenyl] 2,3,4-tri-O-acetyl-α-L-arabinopyranoside]	−2* %
N#Cc1ccc(C(=O)c2ccc(O[C@@H]3OC[C@H](O)[C@H](O)[C@H]3O)cc2)cc1 [Example 19, [4-(4-Cyanobenzoyl)phenyl] α-L-arabinopyranoside]	−31* %

same assay, conditions: total serum cholesterol; female C57BL/6J mice on fatty diet (1.25% cholesterol, 0.5% cholic acid); single dose 100 mg/kg by tubage

SMILES	Activity (%): percentage inhibition of the increase in cholesterolemia compared with the control group [%]
CC(=O)O[C@@H]1[C@H](Oc2ccc(C(=O)c3ccc(C#N)cc3)cc2)OC[C@@H](OC(C)=O)[C@H]1OC(C)=O [Example 1, [4-(4-Cyanobenzoyl)phenyl] 2,3,4-tri-O-acetyl-β-D-arabinopyranoside]	−25
N#Cc1ccc(C(=O)c2ccc(O[C@@H]3OC[C@@H](O)[C@@H](O)[C@@H]3O)cc2)cc1 [Example 2, [4-(4-Cyanobenzoyl)phenyl] β-D-arabinopyranoside]	−29
N#Cc1ccc(C(=O)c2ccc(O[C@@H]3OC[C@@H](O)[C@H](O)[C@@H]3O)cc2)cc1 [Example 3, [4-(4-Cyanobenzoyl)phenyl] β-D-lyxopyranoside]	−28
CC(=O)O[C@H]1[C@H](Oc2ccc(C(=O)c3ccc(C#N)cc3)cc2)OC[C@@H](OC(C)=O)[C@H]1OC(C)=O [Example 4, [4-(4-Cyanobenzoyl)phenyl] 2,3,4-tri-O-acetyl-β-D-ribopyranoside]	−23
N#Cc1ccc(C(=O)c2ccc(O[C@@H]3OC[C@@H](O)[C@@H](O)[C@H]3O)cc2)cc1 [Example 5, [4-(4-Cyanobenzoyl)phenyl] β-D-ribopyranoside]	−36
CC(=O)OC[C@H]1O[C@@H](Oc2ccc(C(=O)c3ccc(C#N)cc3)cc2)[C@H](OC(C)=O)[C@@H](OC(C)=O)[C@H]1OC(C)=O [Example 6, [4-(4-Cyanobenzoyl)phenyl] 2,3,4,6-tetra-O-acetyl-β-D-galactopyranoside]	−33
N#Cc1ccc(C(=O)c2ccc(O[C@@H]3O[C@H](CO)[C@H](O)[C@H](O)[C@H]3O)cc2)cc1 [Example 7, [4-(4-Cyanobenzoyl)phenyl] β-D-galactopyranoside]	−32
CC(=O)OC[C@H]1O[C@@H](Oc2ccc(C(=O)c3ccc(C#N)cc3)cc2)[C@@H](OC(C)=O)[C@@H](OC(C)=O)[C@@H]1OC(C)=O [Example 8, [4-(4-Cyanobenzoyl)phenyl] 2,3,4,6-tetra-O-acetyl-β-D-mannopyranoside]	−17
N#Cc1ccc(C(=O)c2ccc(O[C@@H]3O[C@H](CO)[C@@H](O)[C@H](O)[C@@H]3O)cc2)cc1 [Example 9, [4-(4-Cyanobenzoyl)phenyl] β-D-mannopyranoside]	−39
CC(=O)O[C@@H]1[C@@H](OC(C)=O)[C@@H](Oc2ccc(C(=O)c3ccc(C#N)cc3)cc2)OC[C@@H]1OC(C)=O [Example 10, [4-(4-Cyanobenzoyl)phenyl] 2,3,4-tri-O-acetyl-β-L-arabinopyranoside]	−22
N#Cc1ccc(C(=O)c2ccc(O[C@H]3OC[C@H](O)[C@H](O)[C@H]3O)cc2)cc1 [Example 11, [4-(4-Cyanobenzoyl)phenyl] β-L-arabinopyranoside]	−31
CC(=O)O[C@@H]1[C@@H](Oc2ccc(C(=O)c3ccc(C#N)cc3)cc2)OC[C@H](OC(C)=O)[C@H]1OC(C)=O [Example 12, [4-(4-Cyanobenzoyl)phenyl] 2,3,4-tri-O-acetyl-β-L-xylopyranoside]	−45
N#Cc1ccc(C(=O)c2ccc(O[C@H]3OC[C@H](O)[C@@H](O)[C@@H]3O)cc2)cc1 [Example 13, [4-(4-Cyanobenzoyl)phenyl] β-L-xylopyranoside]	−45
CC(=O)O[C@@H]1[C@H](Oc2ccc(C(=O)c3ccc(C#N)cc3)cc2)OC[C@H](OC(C)=O)[C@H]1OC(C)=O [Example 14, [4-(4-Cyanobenzoyl)phenyl] 2,3,4-tri-O-acetyl-α-L-xylopyranoside]	−36
N#Cc1ccc(C(=O)c2ccc(O[C@@H]3OC[C@H](O)[C@@H](O)[C@@H]3O)cc2)cc1 [Example 15, [4-(4-Cyanobenzoyl)phenyl] α-L-xylopyranoside]	−32
CC(=O)O[C@@H]1[C@@H](OC(C)=O)[C@H](C)O[C@H](Oc2ccc(C(=O)c3ccc(C#N)cc3)cc2)[C@@H]1OC(C)=O [Example 16, [4-(4-Cyanobenzoyl)phenyl] 2,3,4-tri-O-acetyl-β-L-rhamnopyranoside]	−37
C[C@@H]1O[C@H](Oc2ccc(C(=O)c3ccc(C#N)cc3)cc2)[C@H](O)[C@H](O)[C@H]1O [Example 17, [4-(4-Cyanobenzoyl)phenyl] β-L-rhamnopyranoside]	−50
